30 compounds from US20250188057A1, “NON-AROMATIC CYCLIC-PYRIMIDINE ANALOGS AS GLUCOSYLCERAMIDE SYNTHASE INHIBITORS” (Merck Sharp & Dohme LLC, priority 2022, published 2025) can be followed below.

pIC50: −log10 of the molar value.

In this experiment the target is glucosylceramide synthase (GCS) (Homo sapiens (Human), UniProt Q16739). In words: UDP-Glo glucosylceramide synthase biochemical assay. Conditions: endogenous GCS in Golgi preparations isolated from human A375 malignant melanoma skin cells; UDP detection by luminescence. The text has this: A UDP-Glo™ glucosylceramide synthase biochemical assay was utilized to evaluate the effect of test compounds on the activity of endogenous levels of GCS enzyme contained within Golgi preparations isolated from human A375 malignant melanoma skin cells. The UDP-Glo™ glucosylceramide synthase assay uses UDP-Glucose as a nucleotide-glycosyl donor and ceramide as substrate acceptor molecules. In the reaction, glucosylceramide synthase (GCS) transfers glucose from UDP-Glucose to ceramide. Glucosylceramide and UDP are released as products.
Sequence of glucosylceramide synthase (GCS) (Q16739 whole entry): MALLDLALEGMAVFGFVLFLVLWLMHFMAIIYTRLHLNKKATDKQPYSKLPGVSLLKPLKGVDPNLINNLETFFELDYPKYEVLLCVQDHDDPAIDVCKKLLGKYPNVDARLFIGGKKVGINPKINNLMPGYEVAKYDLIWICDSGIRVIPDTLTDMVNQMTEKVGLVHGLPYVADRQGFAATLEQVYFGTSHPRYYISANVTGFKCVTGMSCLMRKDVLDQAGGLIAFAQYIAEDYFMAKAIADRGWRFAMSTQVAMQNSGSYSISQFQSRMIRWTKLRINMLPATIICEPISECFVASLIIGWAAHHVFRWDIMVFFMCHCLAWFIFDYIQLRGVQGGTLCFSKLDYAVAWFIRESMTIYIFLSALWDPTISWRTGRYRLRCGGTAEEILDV
Using Promega's UDP-Glo™ Glycosyltransferase assay kit (Promega Corporation, Madison, WI, USA (Promega)), GCS activity was indirectly measured by detecting the amount of UDP produced. An aliquot of GCS enzyme (1.5 μg crude golgi preparation, total protein) and titrated test compound were aliquoted to each well and incubated for 30 minutes at room temperature. […] An equivalent volume of substrate mixture was then added to each well. Following a 20 h incubation at room temperature to allow for GCS turnover of substrate, an equal volume of UDP detection reagent (Promega) was added to each well and incubated for an additional 75 minutes at room temperature to simultaneously convert the accumulated UDP product into ATP and generate light in a luciferase reaction. The generated light was detected using a luminometer. […] luminescence values (RLUs) were normalized to mean “min” and “max” effects, as determined on each plate. “Min” was defined as the mean of the values of the wells treated with vehicle (DMSO) and which represent 0% inhibition; “max” was defined as the mean of the values of the wells treated with a reference inhibitor and which represent the 100% effect. Values for % Emax and EC50 were determined by best-fitting the normalized data to a curve in Activity Base along a four-parameter logistic nonlinear regression (4PL) model (based on the Levenberg-Marquardt algorithm and defined by the equation below): […]
where: n is 4PMin (bottom of the curve); m is 4PMax (top of the curve); i is IP (inflection point of curve); and p is slope. See Levenberg, K., “A Method for the Solution of Certain Problems in Least Squares”, Quart. Appl. Math. 2, (1944), pp 164-168 and Marquardt, D., “An Algorithm for Least Squares Estimation on Nonlinear Parameters”, SIAM J. Appl. Math 11, (1963) pp 431-441.
`Cc1nc2c(s1)CCCC2Nc1nc(C2CC2)nc(Cl)c1CO` (single isomer, unassigned) [Compound 110, (4-chloro-2-cyclopropyl-6-((2-methyl-4,5,6,7-tetrahydrobenzo[d]thiazol-4-yl)amino)pyrimidin-5-yl)methanol]: the pIC50 is 6.58.
The same measure for `OCc1cnc(C2CC2)nc1OC[C@H]1CCN(c2ccc(C(F)(F)F)nc2)C1` [Compound 1, (S)-(2-cyclopropyl-4-((1-(6-(trifluoromethyl)pyridin-3-yl)pyrrolidin-3-yl)methoxy)pyrimidin-5-yl)methanol]: 6.24; for `OCc1cnc(C2CC2)nc1OC[C@@H]1CCN(c2ccc(C(F)(F)F)nc2)C1` [Compound 2, (R)-(2-cyclopropyl-4-((1-(6-(trifluoromethyl)pyridin-3-yl)pyrrolidin-3-yl)methoxy)pyrimidin-5-yl)methanol]: 6.25; for `OCc1cnc(C2CC2)nc1OC[C@@H]1CN(c2ccc(C(F)(F)F)nc2)CCO1` [Compound 3, (S)-(2-cyclopropyl-4-((4-(6-(trifluoromethyl)pyridin-3-y)morpholin-2-yl)methoxy)pyrimidin-5-yl)methanol]: 5.63.
Compound `OCc1cnc(C2CC2)nc1OC[C@H]1CN(c2ccc(C(F)(F)F)nc2)CCO1` [Compound 4, (R)-(2-cyclopropyl-4-((4-(6-(trifluoromethyl)pyridin-3-yl)morpholin-2-yl)methoxy)pyrimidin-5-yl)methanol] had a negative-log IC50 (pIC50) of 5.86.
In turn, `OCc1cnc(C2CC2)nc1OCC1CCN(c2ccc(C(F)(F)F)nc2)CC1` [Compound 5, (2-cyclopropyl-4-((1-(6-(trifluoromethyl)pyridin-3-yl)piperidin-4-yl)methoxy)pyrimidin-5-yl)methanol] had a negative-log IC50 (pIC50) of 5.47.
`OCc1cnc(C2CC2)nc1OC1CCN(c2ccc(C(F)(F)F)nc2)CC1` [Compound 6, (2-cyclopropyl-4-((1-(6-(trifluoromethyl)pyridin-3-yl)piperidin-4-yl)oxy)pyrimidin-5-yl)methanol] gave a pIC50 of 5.84.
As for `N#Cc1cnc(C2CC2)nc1OC[C@H]1CCN(c2ccc(-n3cccn3)cc2)C1` [Compound 7, (S)-4-((1-(4-(1H-pyrazol-1-yl)phenyl)pyrrolidin-3-yl)methoxy)-2-cyclopropylpyrimidine-5-carbonitrile], the figure is 8.37.
Consider `N#Cc1cnc(C2CC2)nc1OC[C@H]1CCN(c2cnc(-c3ccccc3)o2)C1` [Compound 8, (S)-2-cyclopropyl-4-((1-(2-phenyloxazol-5-yl)pyrrolidin-3-yl)methoxy)pyrimidine-5-carbonitrile], for which the pIC50 was 6.05.
As for `N#Cc1cnc(C2CC2)nc1OC[C@H]1CCN(c2cccc(-c3ncco3)c2)C1` [Compound 9, (S)-2-cyclopropyl-4-((1-(3-(oxazol-2-yl)phenyl)pyrrolidin-3-yl)methoxy)pyrimidine-5-carbonitrile], the figure is 6.08.
Consider `N#Cc1cnc(C2CC2)nc1OC[C@H]1CCN(c2cccc(-c3nccs3)c2)C1` [Compound 10, (S)-2-cyclopropyl-4-((1-(3-(thiazol-2-yl)phenyl)pyrrolidin-3-yl)methoxy)pyrimidine-5-carbonitrile], for which the pIC50 was 6.60.
Take `N#Cc1cnc(C2CC2)nc1OC[C@H]1CCN(c2ccc(-c3ncco3)cc2)C1` [Compound 11, (S)-2-cyclopropyl-4-((1-(4-(oxazol-2-yl)phenyl)pyrrolidin-3-yl)methoxy)pyrimidine-5-carbonitrile]: the negative-log IC50 (pIC50) was 7.46.
In turn, `COc1cccc(N2CC[C@H](COc3nc(C4CC4)ncc3C#N)C2)n1` [Compound 12, (S)-2-cyclopropyl-4-((1-(6-methoxypyridin-2-yl)pyrrolidin-3-yl)methoxy)pyrimidine-5-carbonitrile] had a pIC50 of 6.28.
`Cc1nnc(-c2ccc(N3CC[C@H](COc4nc(C5CC5)ncc4C#N)C3)cc2)s1` [Compound 13, (S)-2-cyclopropyl-4-((1-(4-(5-methyl-1,3,4-thiadiazol-2-yl)phenyl)pyrrolidin-3-yl)methoxy)pyrimidine-5-carbonitrile] showed a negative-log IC50 (pIC50) of 7.10.
The same measure for `N#Cc1cnc(C2CC2)nc1OC[C@H]1CCN(c2sccc2C#N)C1` [Compound 14]: 6.85.
With `Cc1nccc(-c2cccc(N3CC[C@H](COc4nc(C5CC5)ncc4C#N)C3)c2)n1` [Compound 15, (S)-2-cyclopropyl-4-((1-(3-(2-methylpyrimidin-4-yl)phenyl)pyrrolidin-3-yl)methoxy)pyrimidine-5-carbonitrile], the negative-log IC50 (pIC50) was 6.09.
`N#Cc1cnc(C2CC2)nc1OC[C@H]1CCN(c2cccc(-n3cccn3)c2)C1` [Compound 16, (S)-4-((1-(3-(1H-pyrazol-1-yl)phenyl)pyrrolidin-3-yl)methoxy)-2-cyclopropylpyrimidine-5-carbonitrile] showed a negative-log IC50 (pIC50) of 6.45.
On to `Cc1cnc(N2CC[C@H](COc3nc(C4CC4)ncc3C#N)C2)c(C)c1` [Compound 17, (S)-2-cyclopropyl-4-((1-(3,5-dimethylpyridin-2-yl)pyrrolidin-3-yl)methoxy)pyrimidine-5-carbonitrile], for which the pIC50 was 5.99.
In turn, `N#Cc1cnc(C2CC2)nc1OC[C@H]1CCN(c2ccc(-c3ccno3)cc2)C1` [Compound 18, (S)-2-cyclopropyl-4-((1-(4-(isoxazol-5-yl)phenyl)pyrrolidin-3-yl)methoxy)pyrimidine-5-carbonitrile] showed a pIC50 of 7.17.
Compound `N#Cc1cnc(C2CC2)nc1OC[C@H]1CCN(c2ccc(-c3ccon3)cc2)C1` [Compound 19, (S)-2-cyclopropyl-4-((1-(4-(isoxazol-3-yl)phenyl)pyrrolidin-3-yl)methoxy)pyrimidine-5-carbonitrile] showed a pIC50 of 7.43.
As for `N#Cc1cnc(C2CC2)nc1OC[C@H]1CCN(c2cccc(-n3nccn3)c2)C1` [Compound 20, (S)-4-((1-(3-(2H-1,2,3-triazol-2-yl)phenyl)pyrrolidin-3-yl)methoxy)-2-cyclopropylpyrimidine-5-carbonitrile], the figure is 6.45; as for `N#Cc1cnc(C2CC2)nc1OC[C@H]1CCN(c2cnc3ccsc3c2)C1` [Compound 21, (S)-2-cyclopropyl-4-((1-(thieno[3,2-b]pyridin-6-yl)pyrrolidin-3-yl)methoxy)pyrimidine-5-carbonitrile], 5.88; as for `N#Cc1cnc(C2CC2)nc1OC[C@H]1CCN(c2ccc(-c3cnco3)cc2)C1` [Compound 22, (S)-2-cyclopropyl-4-((1-(4-(oxazol-5-yl)phenyl)pyrrolidin-3-yl)methoxy)pyrimidine-5-carbonitrile], 7.59.
The same measure for `N#Cc1cnc(C2CC2)nc1OC[C@H]1CCN(c2nnc(C3CC3)s2)C1` [Compound 23, (S)-2-cyclopropyl-4-((1-(5-cyclopropyl-1,3,4-thiadiazol-2-yl)pyrrolidin-3-yl)methoxy)pyrimidine-5-carbonitrile]: 5.44.
As to `N#Cc1cnc(C2CC2)nc1OC[C@H]1CCN(c2ccc(C3CC3)nc2)C1` [Compound 24, (S)-2-cyclopropyl-4-((1-(6-cyclopropylpyridin-3-yl)pyrrolidin-3-yl)methoxy)pyrimidine-5-carbonitrile], the pIC50 is 6.42.
The same measure for `CCOc1ccc(N2CC[C@H](COc3nc(C4CC4)ncc3C#N)C2)cn1` [Compound 25, (S)-2-cyclopropyl-4-((1-(6-ethoxypyridin-3-yl)pyrrolidin-3-yl)methoxy)pyrimidine-5-carbonitrile]: 6.64.
For the compound `N#Cc1cnc(C2CC2)nc1OC[C@H]1CCN(c2ncccc2C(F)F)C1` [Compound 26, (S)-2-cyclopropyl-4-((1-(3-(difluoromethyl)pyridin-2-yl)pyrrolidin-3-yl)methoxy)pyrimidine-5-carbonitrile], the pIC50 was 5.33.
In the case of `N#Cc1cnc(C2CC2)nc1OC[C@H]1CCN(c2ccnc(C3CCC3)c2)C1` [Compound 27, (S)-4-((1-(2-cyclobutylpyridin-4-yl)pyrrolidin-3-yl)methoxy)-2-cyclopropylpyrimidine-5-carbonitrile], the pIC50 is 5.44.
As for `COc1ccc(C)nc1N1CC[C@H](COc2nc(C3CC3)ncc2C#N)C1` [Compound 28, (S)-2-cyclopropyl-4-((1-(3-methoxy-6-methylpyridin-2-yl)pyrrolidin-3-yl)methoxy)pyrimidine-5-carbonitrile], the figure is 5.35.
As for `N#Cc1cnc(C2CC2)nc1OC[C@H]1CCN(c2ccc(OC(F)F)cn2)C1` [Compound 29, (S)-2-cyclopropyl-4-((1-(5-(difluoromethoxy)pyridin-2-yl)pyrrolidin-3-yl)methoxy)pyrimidine-5-carbonitrile], the figure is 6.83.

The pIC50 is −log10 of the IC50, conventionally taken in molar units. Low readings indicate a high IC50, high ones a low IC50.
